Data published in patent publication US8227406B2, “Antimicrobial peptides” (Dermagen AB, priority 2006, dated 2012).
Several values for one entry are separate records, joined by “and”; a condition that tells them apart may be missing. Equal entries are not always repeated.

Columns and labels:
[1] = tested on: Candida albicans ATCC90028; assay: Radial diffusion assay (RDA), C. albicans; format: cell-based; design: unit not given here; conditions: Table 1c; for RDA Data (single replicates), C. albicans: individual values
Experimental: (§1) Peptides. Peptides were from Sigma-Genosys, generated by a peptide synthesis platform (PEPscreen®, Custom Peptide Libraries, SigmaGenosys). Yield was ˜1-6 mg, and peptide length 20 amino acids. MALDI-ToF Mass Spectrometry was perfomed on these peptides. Average Crude Purity of 20mers was ˜60%. Peptides were supplied lyophilized and in a 96-well tube rack. Prior to biological testing the PEPscreen peptides were diluted in dH2O (5 mM stock), and stored at −20 C. This stock solution was used for the subsequent experiments.
(§2) Eschericia coli ATCC25922, Staphylococcus aureus ATCC29213, and the fungal isolate Candida albicans ATCC90028 were obtained from the Department of Bacteriology, Lund University Hospital.
(§3) Radial diffusion assays (RDA) were performed essentially as described earlier (Lehrer, R. I., Rosenman, M., Harwig, S. S., Jackson, R. & Eisenhauer, P. (1991) Ultrasensitive assays for endogenous antimicrobial polypeptides, J Immunol Methods. 137, 167-73). Briefly, bacteria (E. coli, S. aureus) or fungi (C. albicans) were grown to midlogarithmic phase in 10 ml of full-strength (3% w/v) trypticase soy broth (TSB) (Becton-Dickinson, Cockeysville, Md.). The microorganisms were washed once with 10 mM Tris, pH 7.4. 4×10^6 bacterial cfu or 1×10^5 fungal cfu was added to 5 ml of the underlay agarose gel, consisting of 0.03% (w/v) TSB, 1% (w/v) low-electroendoosmosistype (Low-EEO) agarose (Sigma, St Louise Mo.) and a final concentration of 0.02% (v/v) Tween 20 (Sigma). The underlay was poured into a Ø 85 mm petri dish. After agarose solidified, 4 mm-diameter wells were punched and 6 μl of test sample was added to each well. Plates were incubated at 37° C. for 3 hours to allow diffusion of the peptides. The underlay gel was then covered with 5 ml of molten overlay (6% TSB and 1% Low-EEO agarose in dH2O). Antimicrobial activity of a peptide is visualized as a clear zone around each well after 18-24 hours of incubation at 37° C. for bacteria and 28° C. for Candida albicans. Other examples of peptides that were screened and found to show an increased effect against the above mentioned microorgansism are listed below. Some of the results are found in table 1c showing the effects against C. albicans, table 1d E. coli and table 1e S. aureus.

[2] = tested on: Staphylococcus aureus ATCC29213; assay: Radial diffusion assay (RDA), S. aureus; format: cell-based; design: Data (RDA antimicrobial activity, single replicates) / Mean (RDA antimicrobial activity): unit not given here; conditions: S. aureus; for Data (RDA antimicrobial activity, single replicates): individual replicate; for Mean (RDA antimicrobial activity): mean of 3
Experimental: as §1, §2, §3

[3] = tested on: Eschericia coli ATCC25922; assay: Radial diffusion assay (RDA), E. coli; format: cell-based, Escherichia coli; design: Data (RDA antimicrobial activity, single replicates) / Mean (RDA antimicrobial activity): unit not given here; conditions: E. coli; for Data (RDA antimicrobial activity, single replicates): individual replicate; for Mean (RDA antimicrobial activity): mean of 3
Experimental: as §1, §2, §3

Substance: PKRKKKGGKNGKNRRNRKKKNWWW [PKR-21-WWW]
- RDA Mean, C. albicans ([1]; peptide 0.1 μM): 0.00
- RDA Data (single replicates), C. albicans ([1]; peptide 0.1 μM): 0.00
- RDA Mean, C. albicans ([1]; peptide 0.5 μM): 0.00
- RDA Data (single replicates), C. albicans ([1]; peptide 0.5 μM): 0.00
- RDA Mean, C. albicans ([1]; peptide 1 μM): 0.49
- RDA Data (single replicates), C. albicans ([1]; peptide 1 μM): 0.55 and 0.42 and 0.51
- RDA Mean, C. albicans ([1]; peptide 5 μM): 1.14
- RDA Data (single replicates), C. albicans ([1]; peptide 5 μM): 1.26 and 1.06 and 1.10
- RDA Mean, C. albicans ([1]; peptide 10 μM): 3.11
- RDA Data (single replicates), C. albicans ([1]; peptide 10 μM): 3.54 and 2.82 and 2.97
- RDA Mean, C. albicans ([1]; peptide 50 μM): 5.47
- RDA Data (single replicates), C. albicans ([1]; peptide 50 μM): 5.84 and 5.44 and 5.13
- RDA Mean, C. albicans ([1]; peptide 100 μM): 6.97
- RDA Data (single replicates), C. albicans ([1]; peptide 100 μM): 6.69 and 7.04 and 7.19
- Data (RDA antimicrobial activity, single replicates) ([2]; peptide 0.1 μM): 0
- Mean (RDA antimicrobial activity) ([2]; peptide 0.1 μM): 0.00
- Data (RDA antimicrobial activity, single replicates) ([2]; peptide 0.5 μM): 0
- Mean (RDA antimicrobial activity) ([2]; peptide 0.5 μM): 0.00
- Data (RDA antimicrobial activity, single replicates) ([2]; peptide 1 μM): 2.56 and 2.59 and 3.06
- Mean (RDA antimicrobial activity) ([2]; peptide 1 μM): 2.74
- Data (RDA antimicrobial activity, single replicates) ([2]; peptide 5 μM): 2.98 and 2.5 and 3.07
- Mean (RDA antimicrobial activity) ([2]; peptide 5 μM): 2.85
- Data (RDA antimicrobial activity, single replicates) ([2]; peptide 10 μM): 3.53 and 4.06 and 3.83
- Mean (RDA antimicrobial activity) ([2]; peptide 10 μM): 3.81
- Data (RDA antimicrobial activity, single replicates) ([2]; peptide 50 μM): 4.21 and 5.14 and 4.23
- Mean (RDA antimicrobial activity) ([2]; peptide 50 μM): 4.53
- Data (RDA antimicrobial activity, single replicates) ([2]; peptide 100 μM): 4.77 and 5.67 and 5.02
- Mean (RDA antimicrobial activity) ([2]; peptide 100 μM): 5.15
- Data (RDA antimicrobial activity, single replicates) ([3]; peptide 0.1 μM): 0
- Mean (RDA antimicrobial activity) ([3]; peptide 0.1 μM): 0.00
- Data (RDA antimicrobial activity, single replicates) ([3]; peptide 0.5 μM): 1.26 and 1.05 and 0.84
- Mean (RDA antimicrobial activity) ([3]; peptide 0.5 μM): 1.05
- Data (RDA antimicrobial activity, single replicates) ([3]; peptide 1 μM): 3.6 and 2.59 and 3.49
- Mean (RDA antimicrobial activity) ([3]; peptide 1 μM): 3.23
- Data (RDA antimicrobial activity, single replicates) ([3]; peptide 5 μM): 4.99 and 5.03 and 4.75
- Mean (RDA antimicrobial activity) ([3]; peptide 5 μM): 4.92
- Data (RDA antimicrobial activity, single replicates) ([3]; peptide 10 μM): 5.86 and 5.87 and 6.13
- Mean (RDA antimicrobial activity) ([3]; peptide 10 μM): 5.95
- Data (RDA antimicrobial activity, single replicates) ([3]; peptide 50 μM): 7.71 and 7.97 and 6.98
- Mean (RDA antimicrobial activity) ([3]; peptide 50 μM): 7.55
- Data (RDA antimicrobial activity, single replicates) ([3]; peptide 100 μM): 7.34 and 8.26 and 7.99
- Mean (RDA antimicrobial activity) ([3]; peptide 100 μM): 7.86

Substance: GKR-22: growth factor derived peptide, untagged parent of GKR22WWW; sequence not printed (GKRKKKGKGLGKKRDPCLRKYK; listed as Homo sapiens)
- RDA Mean, C. albicans ([1]; peptide 0.1 μM): 0.00
- RDA Data (single replicates), C. albicans ([1]; peptide 0.1 μM): 0.00
- RDA Mean, C. albicans ([1]; peptide 0.5 μM): 0.00
- RDA Data (single replicates), C. albicans ([1]; peptide 0.5 μM): 0.00
- RDA Mean, C. albicans ([1]; peptide 1 μM): 0.00
- RDA Data (single replicates), C. albicans ([1]; peptide 1 μM): 0.00
- RDA Mean, C. albicans ([1]; peptide 5 μM): 0.00
- RDA Data (single replicates), C. albicans ([1]; peptide 5 μM): 0.00
- RDA Mean, C. albicans ([1]; peptide 10 μM): 0.00
- RDA Data (single replicates), C. albicans ([1]; peptide 10 μM): 0.00
- RDA Mean, C. albicans ([1]; peptide 50 μM): 1.04
- RDA Data (single replicates), C. albicans ([1]; peptide 50 μM): 1.04 and 1.08 and 1.01
- RDA Mean, C. albicans ([1]; peptide 100 μM): 3.16
- RDA Data (single replicates), C. albicans ([1]; peptide 100 μM): 3.66 and 3.31 and 2.50
- Data (RDA antimicrobial activity, single replicates) ([2]; peptide 0.1 μM): 0
- Mean (RDA antimicrobial activity) ([2]; peptide 0.1 μM): 0.00
- Data (RDA antimicrobial activity, single replicates) ([2]; peptide 0.5 μM): 0
- Mean (RDA antimicrobial activity) ([2]; peptide 0.5 μM): 0.00
- Data (RDA antimicrobial activity, single replicates) ([2]; peptide 1 μM): 0.4 and 0.26 and 0.25
- Mean (RDA antimicrobial activity) ([2]; peptide 1 μM): 0.30
- Data (RDA antimicrobial activity, single replicates) ([2]; peptide 5 μM): 1.87 and 1.67 and 2.03
- Mean (RDA antimicrobial activity) ([2]; peptide 5 μM): 1.86
- Data (RDA antimicrobial activity, single replicates) ([2]; peptide 10 μM): 2.37 and 2.46 and 1.95
- Mean (RDA antimicrobial activity) ([2]; peptide 10 μM): 2.26
- Data (RDA antimicrobial activity, single replicates) ([2]; peptide 50 μM): 3.03 and 3.09 and 2.96
- Mean (RDA antimicrobial activity) ([2]; peptide 50 μM): 3.03
- Data (RDA antimicrobial activity, single replicates) ([2]; peptide 100 μM): 3.88 and 3.94 and 3.07
- Mean (RDA antimicrobial activity) ([2]; peptide 100 μM): 3.63
- Data (RDA antimicrobial activity, single replicates) ([3]; peptide 0.1 μM): 0
- Mean (RDA antimicrobial activity) ([3]; peptide 0.1 μM): 0.00
- Data (RDA antimicrobial activity, single replicates) ([3]; peptide 0.5 μM): 0
- Mean (RDA antimicrobial activity) ([3]; peptide 0.5 μM): 0.00
- Data (RDA antimicrobial activity, single replicates) ([3]; peptide 1 μM): 0
- Mean (RDA antimicrobial activity) ([3]; peptide 1 μM): 0.00
- Data (RDA antimicrobial activity, single replicates) ([3]; peptide 5 μM): 1.88 and 1.85 and 2.07
- Mean (RDA antimicrobial activity) ([3]; peptide 5 μM): 1.93
- Data (RDA antimicrobial activity, single replicates) ([3]; peptide 10 μM): 2.07 and 3.47 and 2.74
- Mean (RDA antimicrobial activity) ([3]; peptide 10 μM): 2.76
- Data (RDA antimicrobial activity, single replicates) ([3]; peptide 50 μM): 3.68 and 3.65 and 3.61
- Mean (RDA antimicrobial activity) ([3]; peptide 50 μM): 3.65
- Data (RDA antimicrobial activity, single replicates) ([3]; peptide 100 μM): 4.5 and 5.24 and 4.19
- Mean (RDA antimicrobial activity) ([3]; peptide 100 μM): 4.64
